The target in the assay is T1, α-amylase (Sus scrofa, UniProt P00690).
T1 construct: gene AMY2
T1 sequence (P00690 16-511): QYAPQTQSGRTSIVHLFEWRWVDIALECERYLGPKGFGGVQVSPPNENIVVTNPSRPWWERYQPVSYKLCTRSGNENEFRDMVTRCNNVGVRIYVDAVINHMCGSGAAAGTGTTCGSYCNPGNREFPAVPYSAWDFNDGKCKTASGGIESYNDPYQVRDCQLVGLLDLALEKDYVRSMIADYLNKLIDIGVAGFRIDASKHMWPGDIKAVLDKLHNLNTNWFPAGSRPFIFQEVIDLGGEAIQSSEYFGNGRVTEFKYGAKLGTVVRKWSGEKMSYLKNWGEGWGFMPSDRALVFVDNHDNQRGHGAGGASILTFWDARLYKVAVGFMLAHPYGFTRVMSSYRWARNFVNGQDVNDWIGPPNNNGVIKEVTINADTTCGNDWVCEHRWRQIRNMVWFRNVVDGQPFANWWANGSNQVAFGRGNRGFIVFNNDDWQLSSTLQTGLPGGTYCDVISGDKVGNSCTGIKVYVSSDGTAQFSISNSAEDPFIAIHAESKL
Briefly: α-amylase inhibition assay of isolated compound; also captured by centrifugal ultrafiltration LC-MS with active but not denatured enzyme. In kind it is biochemical.

The source of these data is PMC6274455, “Isolation of α-Amylase Inhibitors from Kadsura longipedunculata Using a High-Speed Counter-Current Chromatography Target Guided by Centrifugal Ultrafiltration with LC-MS” (Molecules, 2016).

Structures are written as SMILES. Where two headings read alike, the source gives them in different places.

`C[C@@H]1O[C@@H](Oc2c(-c3ccc(O)c(O)c3)oc3cc(O)cc(O)c3c2=O)[C@H](O)[C@H](O)[C@H]1O` [compound 1, quercetin-3-O-rhamnoside] displayed an IC50 of 28.8 µM.

Regarding `O=C(O)c1ccc(O)c(O)c1` [compound 2, protocatechuic acid], where the note is “read-out: IC50”, the IC50 is 12.5 µM.

The IC50 is the concentration that inhibits the measured activity by half.
